The record followed here is the supplement of paper PMC11208160.

This series can be described thus: recombinant barcode read abundance after kanamycin selection (control-corrected) (log10(CPM+1)); higher = more efficient recombination; sequences stand for … in AGTGCAGAGAAAATCGGCCAGTTTTCTCTGCCTGCAGTCCGCATGCCGT…AGATTTATGCAGCGGACTGCCTTTCTCCCAAAGTGATAAACCGGACAGTATCATGGACCGGTTTTCCCGGTAATCCGTATTTGCAAGGTTGGTTTCACT; site = the 11-nt target. Put shortly:
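IS621 bridge RNA target-binding loops were paired with targets in a pooled library tested in E. coli. After co-electroporation with a donor plasmid, cells were plated in two replicates on chloramphenicol/ampicillin LB agar (control) and on chloramphenicol/ampicillin/kanamycin carrying 0.1 mM IPTG. Barcodes at recombinant junctions were counted as counts per million, averaged and control-corrected to give recombination efficiency. Values are log10(CPM+1).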
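Further: IS621 recombinase and bridge RNA in Escherichia coli cells.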

“TAGGCTACTTGGGTTCTAACCTGTTGCAC (site TAGGCTACTGT)”: the “recombinant barcode read abundance (log10)” value stood at 1.19. The value for “TAGGCTACTTGGGTTCTAACCTGTTGCAC (site TAGGCTACTTT)” was 0.00761.

Turning to “TAGGCTACTTGGGTTCTAACCTGTTGCCA (site ACCCAATCTGT)”, the “recombinant barcode read abundance (log10)” value was 0.0662. For the sequence “TAGGCTACTTGGGTTCTAACCTGTTGCCA (site TAGGCTACTTG)”, the “recombinant barcode read abundance (log10)” value stood at 0.129. The figure for “TAGGCTCCTTGGGTTCTAACCTGTTGCAG (site TAGGCTCCTAT)” is 0.271; for “TAGGCTCCTTGGGTTCTAACCTGTTGCAG (site TAGGCTCCTCT)” it is 0.429. The figure for “TAGGCTCCTTGGGTTCTAACCTGTTGCAG (site TAGGCTCCTGT)” is 0.0237. The figure for “TAGGCTCCTTGGGTTCTAACCTGTTGCAG (site TAGGCTCCTTT)” is 0.0834; for “TAGGCTGCTTGGGTTCTAACCTGTTGCCT (site TAGACTGCTAG)” it is 0.359; for “TAGGCTGCTTGGGTTCTAACCTGTTGCCT (site TAGCCTGCTAG)” it is 0. Regarding “TAGGCTGCTTGGGTTCTAACCTGTTGCCT (site TAGGCTGCTAG)”, the “recombinant barcode read abundance (log10)” value was 0.177. The value for “TAGGCTGCTTGGGTTCTAACCTGTTGCCT (site TAGTCTGCTAG)” was 0.519. The value for “TAGGTTCCTTGGGTTCTAACCTGTTGCAT (site TAGGTACCTAT)” was 0.795. The figure for “TAGGTTCCTTGGGTTCTAACCTGTTGCAT (site TAGGTCCCTAT)” is 0.335. Consider “TAGGTTCCTTGGGTTCTAACCTGTTGCAT (site TAGGTGCCTAT)”, for which the “recombinant barcode read abundance (log10)” value came to 0.6.

As to “TAGGTTCCTTGGGTTCTAACCTGTTGCAT (site TAGGTTCCTAT)”, the “recombinant barcode read abundance (log10)” value came to 1.04.

Take “TAGTACCCTTGGGTTCTAACCTGTTGCAT (site TAGTACCCTAT)”: the “recombinant barcode read abundance (log10)” value is 0.43. With “TAGTACCCTTGGGTTCTAACCTGTTGCAT (site TAGTACCCTCT)”, the “recombinant barcode read abundance (log10)” value was 0.0976. Regarding “TAGTACCCTTGGGTTCTAACCTGTTGCAT (site TAGTACCCTGT)”, the “recombinant barcode read abundance (log10)” value was determined as 0.0568. The figure for “TAGTACCCTTGGGTTCTAACCTGTTGCAT (site TAGTACCCTTT)” is 0.227. The value for “TAGTAGTCTTGGGTTCTAACCTGTTGCCT (site TAGTAGTCTAA)” was 0.0538; that for “TAGTAGTCTTGGGTTCTAACCTGTTGCCT (site TAGTAGTCTAC)” was 0.0503; that for “TAGTAGTCTTGGGTTCTAACCTGTTGCCT (site TAGTAGTCTAG)” was 1.64. Regarding “TAGTAGTCTTGGGTTCTAACCTGTTGCCT (site TAGTAGTCTAT)”, the “recombinant barcode read abundance (log10)” value was 0.108. The value for “TAGTATCCTTGGGTTCTAACCTGTTGCCA (site TACTACCCTTG)” was 0.142.

Turning to “TAGTATCCTTGGGTTCTAACCTGTTGCCA (site TAGTATCCTTG)”, the “recombinant barcode read abundance (log10)” value was 0.146. Take “TAGTATCCTTGGGTTCTAACCTGTTGCTA (site TAGTATCCTTA)”: the “recombinant barcode read abundance (log10)” value stood at 0.714. The value for “TAGTATCCTTGGGTTCTAACCTGTTGCTA (site TAGTATGCTTA)” was 0.0411; that for “TAGTCGTCTTGGGTTCTAACCTGTTGCTT (site TAGTCGTCTAA)” was 0.456. The figure for “TAGTCGTCTTGGGTTCTAACCTGTTGCTT (site TAGTCGTCTAG)” is 0.309; for “TAGTCTGCTTGGGTTCTAACCTGTTGCCT (site TAGACTGCTAG)” it is 0.0965; for “TAGTCTGCTTGGGTTCTAACCTGTTGCCT (site TAGCCTGCTAG)” it is 0.27. With “TAGTCTGCTTGGGTTCTAACCTGTTGCCT (site TAGGCTGCTAG)”, the “recombinant barcode read abundance (log10)” value worked out at 0.0685. The figure for “TAGTCTGCTTGGGTTCTAACCTGTTGCCT (site TAGTCTGCTAG)” is 0.0515; for “TAGTGCTCTTGGGTTCTAACCTGTTGCCT (site TAGTGCTCTAG)” it is 1.12. With “TAGTGCTCTTGGGTTCTAACCTGTTGCCT (site TAGTGCTCTCG)”, the “recombinant barcode read abundance (log10)” value worked out at 0.434. With “TAGTGCTCTTGGGTTCTAACCTGTTGCCT (site TAGTGCTCTGG)”, the “recombinant barcode read abundance (log10)” value amounted to 0.157. Turning to “TAGTGCTCTTGGGTTCTAACCTGTTGCCT (site TAGTGCTCTTG)”, the “recombinant barcode read abundance (log10)” value was 0.178. The value for “TAGTGGCCTTGGGTTCTAACCTGTTGCCA (site TAGTGGACTTG)” was 0.095. The value for “TAGTGGCCTTGGGTTCTAACCTGTTGCCA (site TAGTGGCCTTG)” was 0.261; that for “TAGTGTACTTGGGTTCTAACCTGTTGCCT (site TAGTGTACTAG)” was 0.579; that for “TAGTGTACTTGGGTTCTAACCTGTTGCCT (site TAGTGTCCTAG)” was 0.16.

“TAGTGTACTTGGGTTCTAACCTGTTGCCT (site TAGTGTGCTAG)”: the “recombinant barcode read abundance (log10)” value amounted to 0.221. The value for “TAGTGTACTTGGGTTCTAACCTGTTGCCT (site TAGTGTTCTAG)” was 0.376. The value for “TAGTGTCCTTGGGTTCTAACCTGTTGCAT (site TAGTGTCCTAT)” was 0.769.

“TAGTGTCCTTGGGTTCTAACCTGTTGCAT (site TAGTGTTCTAT)”: the “recombinant barcode read abundance (log10)” value stood at 0.155.

For “TAGTTAACTTGGGTTCTAACCTGTTGCCA (site TAGTTAACTTG)”, the “recombinant barcode read abundance (log10)” value is 0.569. For “TAGTTAACTTGGGTTCTAACCTGTTGCCA (site TAGTTCACTTG)”, the “recombinant barcode read abundance (log10)” value was determined as 0.0909. The value for “TAGTTAACTTGGGTTCTAACCTGTTGCCA (site TAGTTGACTTG)” was 0.0635; that for “TAGTTAACTTGGGTTCTAACCTGTTGCCA (site TAGTTTACTTG)” was 0.0484; that for “TAGTTAGCTTGGGTTCTAACCTGTTGCCG (site TAGTTAGCTAG)” was 0.0808.

On to “TAGTTAGCTTGGGTTCTAACCTGTTGCCG (site TAGTTAGCTCG)”, for which the “recombinant barcode read abundance (log10)” value was found to be 0.666. The figure for “TAGTTAGCTTGGGTTCTAACCTGTTGCCG (site TAGTTAGCTGG)” is 0.00835; for “TAGTTAGCTTGGGTTCTAACCTGTTGCCG (site TAGTTAGCTTG)” it is 0.0519. On to “TAGTTATCTTGGGTTCTAACCTGTTGCTA (site AGACGTACTAC)”, for which the “recombinant barcode read abundance (log10)” value came out at 0.134. The figure for “TAGTTATCTTGGGTTCTAACCTGTTGCTA (site TAGTTATCTTA)” is 0.0606. With “TAGTTGCCTTGGGTTCTAACCTGTTGCCT (site TAATTGCCTAG)”, the “recombinant barcode read abundance (log10)” value was determined as 0.296. The value for “TAGTTGCCTTGGGTTCTAACCTGTTGCCT (site TACTTGCCTAG)” was 0. The figure for “TAGTTGCCTTGGGTTCTAACCTGTTGCCT (site TAGTTGCCTAG)” is 0.565. For “TAGTTGCCTTGGGTTCTAACCTGTTGCCT (site TATTTGCCTAG)”, the “recombinant barcode read abundance (log10)” value came to 0.0554. Regarding “TATACACCTTGGGTTCTAACCTGTTGCGT (site CTCCGGGCTCT)”, the “recombinant barcode read abundance (log10)” value came out at 0.0474.

Consider “TATACACCTTGGGTTCTAACCTGTTGCGT (site TATACACCTAC)”, for which the “recombinant barcode read abundance (log10)” value worked out at 1.48.

Turning to “TATACCACTTGGGTTCTAACCTGTTGCCT (site TATACCACTAG)”, the “recombinant barcode read abundance (log10)” value worked out at 0.541. The value for “TATACCACTTGGGTTCTAACCTGTTGCCT (site TCGACCACTAG)” was 0.103; that for “TATATGACTTGGGTTCTAACCTGTTGCGG (site ATGCACGCTAG)” was 0.0662.

Consider “TATATGACTTGGGTTCTAACCTGTTGCGG (site TATATGACTCC)”, for which the “recombinant barcode read abundance (log10)” value is 1.41.

“TATCCTCCTTGGGTTCTAACCTGTTGCCG (site GTGGAGTCTAC)”: the “recombinant barcode read abundance (log10)” value was found to be 0.177. The value for “TATCCTCCTTGGGTTCTAACCTGTTGCCG (site TATCCTCCTCG)” was 0.318; that for “TATCGGCCTTGGGTTCTAACCTGTTGCCT (site TAACGGCCTAG)” was 0.0814.

Consider “TATCGGCCTTGGGTTCTAACCTGTTGCCT (site TACCGGCCTAG)”, for which the “recombinant barcode read abundance (log10)” value is 0.0568.

Take “TATCGGCCTTGGGTTCTAACCTGTTGCCT (site TAGCGGCCTAG)”: the “recombinant barcode read abundance (log10)” value stood at 0.0857.

As to “TATCGGCCTTGGGTTCTAACCTGTTGCCT (site TATCGGCCTAG)”, the “recombinant barcode read abundance (log10)” value was found to be 0.0996. Turning to “TATGCGCCTTGGGTTCTAACCTGTTGCCT (site CATGTGCCTAG)”, the “recombinant barcode read abundance (log10)” value turned out to be 0.149. The figure for “TATGCGCCTTGGGTTCTAACCTGTTGCCT (site TATGCGCCTAG)” is 0.327; for “TATGGGGCTTGGGTTCTAACCTGTTGCCT (site TATGAGGCTAG)” it is 0.145. The value for “TATGGGGCTTGGGTTCTAACCTGTTGCCT (site TATGCGGCTAG)” was 0.0621; that for “TATGGGGCTTGGGTTCTAACCTGTTGCCT (site TATGGGGCTAG)” was 0.246.
